From PubChem BioAssay (NCI)
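Step 1: Grow cells in 96-well plates. Step 2: Expose to compound for 48 hours at 5 concentrations. Step 3: Interpolate endpoints linearly; if unreached, use highest concentration. At the GI50, growth is halved. At the TGI there is no net growth.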

Columns and labels:
Assay in all cases: NCI-60 cell line screen, 48 h
[1] = tested on: 786-0 renal
[2] = tested on: A498 renal
[3] = tested on: A549 NSCLC
[4] = tested on: ACHN renal
[5] = tested on: BT-549 breast
[6] = tested on: CAKI-1 renal
[7] = tested on: CCRF-CEM leukemia
[8] = tested on: COLO 205 colon
[9] = tested on: DU-145 prostate
[10] = tested on: EKVX NSCLC
[11] = tested on: HCC-2998 colon
[12] = tested on: HCT-116 colon
[13] = tested on: HCT-15 colon
[14] = tested on: HL-60(TB) leukemia
[15] = tested on: HOP-62 NSCLC
[16] = tested on: HOP-92 NSCLC
[17] = tested on: HS 578T breast
[18] = tested on: HT29 colon
[19] = tested on: IGROV1 ovarian
[20] = tested on: K-562 leukemia
[21] = tested on: KM12 colon
[22] = tested on: LOX IMVI melanoma
[23] = tested on: M14 melanoma
[24] = tested on: MALME-3M melanoma
[25] = tested on: MCF7 breast
[26] = tested on: MDA-MB-231 breast
[27] = tested on: MDA-MB-435
[28] = tested on: MOLT-4 leukemia
[29] = tested on: NCI-H226 lung
[30] = tested on: NCI-H460 lung
[31] = tested on: NCI-H522 lung
[32] = tested on: NCI/ADR-RES ovarian
[33] = tested on: OVCAR-4 ovarian
[34] = tested on: OVCAR-5 ovarian
[35] = tested on: OVCAR-8 ovarian
[36] = tested on: PC-3 prostate
[37] = tested on: RPMI-8226 leukemia
[38] = tested on: RXF 393 renal
[39] = tested on: SF-268 CNS
[40] = tested on: SF-295 CNS
[41] = tested on: SF-539 CNS
[42] = tested on: SK-MEL-2 melanoma
[43] = tested on: SK-MEL-28 melanoma
[44] = tested on: SK-MEL-5 melanoma
[45] = tested on: SK-OV-3 ovarian
[46] = tested on: SN12C renal
[47] = tested on: SNB-19 CNS
[48] = tested on: SNB-75 CNS
[49] = tested on: SR leukemia
[50] = tested on: SW-620 colon
[51] = tested on: T-47D breast
[52] = tested on: TK-10 renal
[53] = tested on: U251 CNS
[54] = tested on: UACC-257 melanoma
[55] = tested on: UACC-62 melanoma
[56] = tested on: UO-31 renal

Structure (SMILES): CCNC(=O)Oc1ccc(/C(=C(/C)c2ccc(OC)cc2)c2ccc(OCCN3CCCCCC3)cc2)cc1
- GI50 [1]: 1.86 µM
- TGI [1]: 6.78 µM
- GI50 [2]: 2.67 µM
- TGI [2]: 9.65 µM
- GI50 [3]: 3.88 µM
- TGI [3]: 10.3 µM
- GI50 [4]: 6.04 µM
- TGI [4]: 12.2 µM
- GI50 [5]: 5.06 µM
- TGI [5]: 10.9 µM
- GI50 [6]: 2.34 µM
- TGI [6]: 8.3 µM
- GI50 [7]: 2.25 µM
- TGI [7]: 33.4 µM
- GI50 [8]: 1.07 µM
- TGI [8]: 2.38 µM
- GI50 [9]: 6.76 µM
- TGI [9]: 13.2 µM
- GI50 [10]: 6.39 µM
- TGI [10]: 13.5 µM
- GI50 [11]: 2.93 µM
- TGI [11]: 9.29 µM
- GI50 [12]: 2.57 µM
- TGI [12]: 8.68 µM
- GI50 [13]: 1.57 µM
- TGI [13]: 6.68 µM
- GI50 [14]: 1.39 µM
- TGI [14]: 4.59 µM
- GI50 [15]: 5.84 µM
- TGI [15]: 12.3 µM
- GI50 [16]: 1.89 µM
- TGI [16]: 9.17 µM
- GI50 [17]: 2.48 µM
- TGI [17]: 11.3 µM
- GI50 [18]: 1.66 µM
- TGI [18]: 6.08 µM
- GI50 [19]: 5.42 µM
- TGI [19]: 12.5 µM
- GI50 [20]: 1.22 µM
- TGI [20]: 3.37 µM
- GI50 [21]: 8.88 µM
- TGI [21]: 16.7 µM
- GI50 [22]: 0.865 µM
- TGI [22]: 1.91 µM
- GI50 [23]: 0.913 µM
- TGI [23]: 1.83 µM
- GI50 [24]: 1.1 µM
- TGI [24]: 2.57 µM
- GI50 [25]: 0.786 µM
- TGI [25]: 7.41 µM
- GI50 [26]: 2.74 µM
- TGI [26]: 9.28 µM
- GI50 [27]: 3.69 µM
- TGI [27]: 10.3 µM
- GI50 [28]: 1.44 µM
- TGI [28]: 5.06 µM
- GI50 [29]: 6.42 µM
- TGI [29]: 14.6 µM
- GI50 [30]: 1.95 µM
- TGI [30]: 6.91 µM
- GI50 [31]: 6.43 µM
- TGI [31]: 13.5 µM
- GI50 [32]: 4.41 µM
- TGI [32]: 11.1 µM
- GI50 [33]: 5.16 µM
- TGI [33]: 11.7 µM
- GI50 [34]: 6.48 µM
- TGI [34]: 12.8 µM
- GI50 [35]: 5.72 µM
- TGI [35]: 12.2 µM
- GI50 [36]: 2.75 µM
- TGI [36]: 9.67 µM
- GI50 [37]: 1.18 µM
- TGI [37]: 3.21 µM
- GI50 [38]: 1.3 µM
- TGI [38]: 5.03 µM
- GI50 [39]: 6.69 µM
- TGI [39]: 15 µM
- GI50 [40]: 1.15 µM
- TGI [40]: 3.44 µM
- GI50 [41]: 2.08 µM
- TGI [41]: 7.74 µM
- GI50 [42]: 5.18 µM
- TGI [42]: 11.2 µM
- GI50 [43]: 1.45 µM
- TGI [43]: 4.48 µM
- GI50 [44]: 2.23 µM
- TGI [44]: 8.13 µM
- GI50 [45]: 5.01 µM
- TGI [45]: 11.1 µM
- GI50 [46]: 5.55 µM
- TGI [46]: 12.1 µM
- GI50 [47]: 5.92 µM
- TGI [47]: 12.2 µM
- GI50 [48]: 6.03 µM
- TGI [48]: 12.9 µM
- GI50 [49]: 1.06 µM
- TGI [49]: 2.76 µM
- GI50 [50]: 1.3 µM
- TGI [50]: 3.28 µM
- GI50 [51]: 1.23 µM
- TGI [51]: 7.88 µM
- GI50 [52]: 9.35 µM
- TGI [52]: 16.5 µM
- GI50 [53]: 2.55 µM
- TGI [53]: 8.87 µM
- GI50 [54]: 1.06 µM
- TGI [54]: 2.76 µM
- GI50 [55]: 1.79 µM
- TGI [55]: 6.33 µM
- GI50 [56]: 1.43 µM
- TGI [56]: 5.53 µM
